Source: patent US9012433B2, “Substituted tetracycline compounds” (Paratek Pharmaceuticals, Inc., priority 2006, dated 2015)
In brackets after ≈: the same amount, converted by molar mass. Like-named read-outs stand apart in the source and are kept apart here.

Assays:
[1] = test system: P. acnes ATCC 11827; experiment: Antibacterial MIC, CLSI broth microdilution; assay type: cell-based; details: Cutibacterium acnes, ATCC11827; 35° C., 18-24 hours
In short: (§1)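 CLSI broth microdilution in cation-supplemented Mueller Hinton broth, inoculum 1×10^5 cfu from 0.5 McFarland cultures diluted 1:200. Incubated 35° C in ambient air for 18-24 hours. Growth read spectrophotometrically and checked manually; MIC (μg/mL) is the lowest compound dilution inhibiting growth.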

[2] = test system: S. aureus RN450; experiment: Antibacterial MIC, CLSI broth microdilution; assay type: cell-based; details: Staphylococcus aureus, RN450; 35° C., 18-24 hours
In short: as §1

[3] = test system: E. coli MG 1655; experiment: Antibacterial MIC, CLSI broth microdilution; assay type: cell-based; details: Escherichia coli, MG1655; 35° C., 18-24 hours
In short: as §1

[4] = test system: B. thetaiotaomicron ATCC 29741; experiment: Antibacterial MIC, CLSI broth microdilution; assay type: cell-based; details: Bacteroides thetaiotaomicron
[5] = test system: S. pneumoniae 157E - Strep; experiment: Antibacterial MIC, CLSI broth microdilution; assay type: cell-based; details: Streptococcus pneumoniae, 157ESTREP; 35° C., 18-24 hours; lysed horse blood
In short: as §1

[6] = test system: E. coli ATCC 25922; experiment: Antibacterial MIC, CLSI broth microdilution; assay type: cell-based; details: Escherichia coli, ATCC25922; 35° C., 18-24 hours
In short: as §1

[7] = test system: P. acnes ATCC 6919; experiment: Antibacterial MIC, CLSI broth microdilution; assay type: cell-based; details: Cutibacterium acnes, ATCC6919; 35° C., 18-24 hours
In short: as §1

[8] = in vitro; assay type: cell-based
In short: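 COS-1 or CHO cells exposed to serial dilutions of test compound for 24 hours. Metabolic activity then read with resazurin (Alamar Blue): 2 hours incubation plus 30 minutes dark at room temperature, fluorescence ex 535/em 590 nm, treated versus control.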

[9] = test system: S. aureus RN450; experiment: In vivo anti-bacterial activity, S. aureus model; details: mice, 24 hours; for responders at 5 mg/kg / ED50: Staphylococcus aureus, sc; for responders at 5 mg/kg: read-out: Percent Survival; for ED50: lethal IP S. aureus RN450, subcutaneous, read-out: PD50 (dose that protects 50% of the animals)
Description: Groups of five mice were injected intraperitoneally with a lethal dose of S. aureus RN450 in a medium of mucin. Mice were evaluated at 24 hours to determine survival. […] In some instances, a dose response study was performed with the compound such that a PD50 (a dose of compound that protects 50% of the animals) could be calculated.

[10] = test system: carrageenan induced rat paw inflammation; experiment: Rat carrageenan-induced paw edema inflammatory model; assay type: in vivo; details: IP, various doses, FIG. 1
Description: The model used a sub-plantar injection of carrageenan in the rat to induce an inflammatory response. The test compound or saline (control) was administered IP 30 minutes before a subplantar injection of carrageenan (1.5 mg/0.1 mL). Paw volume was measured […] before subplantar injection and again 3 hours after the injection of carrageenan using a plethysmometer. Significant differences as determined by a Kruskal-Wallis One Way ANOVA are noted between the inflammation of the untreated controls versus treated animals […]

[11] = Half-life of oxidation, sodium periodate accelerated oxidation; assay type: physicochemical
Description: Not to be limited by theory, it is believed that the tissue staining may be caused oxidative instability. The tetracycline compounds were subjected to accelerated oxidation in a continuous-flow microreactor using a 15 molar excess of sodium periodate at pH 11 and 22° C. Aliquots of each reaction mixture were quenched at various time points with ascorbic acid and the disappearance of each compound was determined by RP-HPLC. Pseudo first-order rate constants and t1/2 values were obtained from the plots of log (Ao-At/Ao) versus time, where Ao is the HPLC area determined for each compound at time=0 and At is the HPLC area at time=t.

[12] = ATCC29741, 35° C., 18-24 hours, read-out: MIC B. thetaiotaomicron ATCC 29741
[13] = lethal IP S. aureus RN450, single subcutaneous dose 5 mg/kg
[14] = ATCC29741, read-out: MIC B. thetaiotaomicron ATCC 29741

Row | Structure (SMILES) | MIC [1] [µg/mL] | MIC [2] [µg/mL] | MIC [3] [µg/mL] | MIC [4, 12] [µg/mL] | MIC [5] [µg/mL] | MIC [6] [µg/mL] | MIC [7] [µg/mL] | IC50 at 24 h ([8]; African green monkey) [µg/mL] | IC50 at 24 h ([8]; Chinese hamster) [µg/mL] | responders at 5 mg/kg [9, 13] [%] | modulation of carrageenan induced inflammation compared with doxycycline [10] | MIC [4, 14] [µg/mL] | half-life ([11]; buffer, pH 11) [min] | half-life ([11]; 15 molar excess of sodium periodate, pH 11, 22° C., read-out: half-life for oxidation (converted)) [min] | ED50 [9] [mg/kg] | Percent Survival ([9]; lethal IP S. aureus RN450, single subcutaneous dose 5 mg/kg, 5 mg/kg)
1 | CCO/N=C(/C)c1ccc(O)c2c1C[C@H]1C[C@H]3[C@H](N(C)C)C(O)=C(C(N)=O)C(=O)[C@@]3(O)C(O)=C1C2=O [A] | < 4 | < 4 | 4 to 8 (≈ 8.01 to 16 µM) | > 8 | < 4 | < 4 | < 4 | < 35 | < 35 | 100 | improved activity |  |  |  |  | 
2 | CN(C)c1ccc(O)c2c1C[C@H]1C[C@H]3[C@H](N(C)C)C(O)=C(C(N)=O)C(=O)[C@@]3(O)C(O)=C1C2=O [Minocycline, reference compound] | < 4 | < 4 | < 4 |  | < 4 | < 4 | < 4 | > 75 | > 75 |  |  | 4 to 8 (≈ 8.74 to 17.5 µM) | 0.137 |  |  | 
3 | CN(C)c1cc(C#N)c(O)c2c1C[C@H]1C[C@H]3[C@H](N(C)C)C(O)=C(C(N)=O)C(=O)[C@@]3(O)C(O)=C1C2=O [B] | < 4 | < 4 | > 8 | 4 to 8 (≈ 8.29 to 16.6 µM) | < 4 | > 8 | < 4 | < 35 | < 35 |  |  |  |  | 8.25 |  | 
4 | CCONCc1ccc(O)c2c1C[C@H]1C[C@H]3[C@H](N(C)C)C(O)=C(C(N)=O)C(=O)[C@@]3(O)C(O)=C1C2=O [AA, (4S,4aS,5aR,12aS)-4-Dimethylamino-7-(ethoxyamino-methyl)-3,10,12,12a-tetrahydroxy-1,11-dioxo-1,4,4a,5,5a,6,11,12a-octahydro-naphthacene-2-carboxylic acid amide] | < 4 | < 4 | 4 to 8 (≈ 8.2 to 16.4 µM) | 4 to 8 (≈ 8.2 to 16.4 µM) | < 4 | 4 to 8 (≈ 8.2 to 16.4 µM) | < 4 | > 75 | > 75 | 100 |  |  |  |  |  | 
5 | C[C@H]1c2cccc(O)c2C(=O)C2=C(O)[C@]3(O)C(=O)C(C(N)=O)=C(O)[C@@H](N(C)C)[C@@H]3[C@@H](O)[C@@H]21 [Doxycycline, reference compound] | < 4 | < 4 | < 4 |  | < 4 | < 4 | < 4 | > 75 | > 75 | 100 |  | 4 to 8 (≈ 9 to 18 µM) |  |  | 0.13 | 100 (5/5) Percent
6 | CN(C)[C@@H]1C(O)=C(C(N)=O)C(=O)[C@@]2(O)C(O)=C3C(=O)c4c(O)ccc(CNOCCF)c4C[C@H]3C[C@@H]12 [DW, (4S,4aS,5aR,12aS)-4-Dimethylamino-7-[(2-fluoro-ethoxyamino)-methyl]-3,10,12,12a-tetrahydroxy-1,11-dioxo-1,4,4a,5,5a,6,11,12a-octahydro-naphthacene-2-carboxylic acid amide] | < 4 | < 4 | > 8 | 4 to 8 (≈ 7.91 to 15.8 µM) | < 4 | < 4 | < 4 | > 75 | > 75 |  |  |  |  |  | 0.48 | 
